The record followed here is US20230271938A1, “BENZIMIDAZOLES FOR USE IN THE TREATMENT OF CANCER AND INFLAMMATORY DISEASES” (Capella Therapeutics, Inc., priority 2015, published 2023).

The target in assay [1] is PIK3C-D (Homo sapiens, UniProt O00329). The assay is described as follows: Inhibition of PIK3C-D kinase. The class given is biochemical. The text has this: The Z′-LYTE® biochemical assay is a fluorescence-based, coupled-enzyme assay based on the differential sensitivity of phosphorylated and non-phosphorylated peptides to proteolytic cleavage. A peptide substrate for a kinase is labeled with two fluorophores, one at each end, to form a FRET pair.
In the primary reaction, the kinase transfers the gamma-phosphate of ATP to a single tyrosine, serine, or threonine residue in the synthetic FRET-peptide substrate. In the secondary reaction, a site-specific protease recognizes and cleaves non-phosphorylated FRET-peptides. Cleavage disrupts FRET between the donor and acceptor fluorophores on the FRET-peptide, whereas uncleaved, phosphorylated FRET-peptides maintain FRET. An inhibitory activity of a compound is thus determined from its effect on the cleavage of the synthetic FRET-peptide substrate.
Binding of an ALEXA FLUOR® conjugate or “tracer” to a kinase is detected by addition of a Eu-labeled anti-tag antibody. […] An inhibitory activity of a compound is thus determined from the extent of the FRET signal loss. Inhibition of ITK and TEC kinases by a test compound is determined in the presence of 1% DMSO.
(§1) Inhibition of BMX, BTK, PIK3C-D, ITK, TEC, and TXK kinases by compound A2 was measured using one of the assays described in Examples 2A and 3A.

The subject of assay [2] is A431 human epidermoid carcinoma cells (wild-type ERBB1). The assay is described as follows: Cell proliferation assay, A431. It counts as cell-based. The conditions noted are these: A-431, 72 hrs. As for the experimental part: (§2) The biological activity of a test compound was determined using cell proliferation assays. The activity against wild-type ERBB 1 was determined using A431 human epidermoid carcinoma cells (ATCC) and human epidermal keratinocytes, neonatal, or HEKn cells (ATCC).
(§3) A431 cells were grown in DMEM (Invitrogen) supplemented with 10% FBS (Lonza), 1% penicillin-streptomycin, and 2 mM glutamine (Invitrogen). HEKn cells were grown in EPILIFE® (Invitrogen) supplemented with HKGS (Invitrogen). HCC827 and H1975 were cultured in RPMI1640 supplemented with 10% FBS (Lonza), 1% penicillin-streptomycin, and 2 mM glutamine (Invitrogen). Cells were maintained and propagated at 37° C. and 5% CO2 in a humidified cell culture incubator. Aliquots of cells from early passages were preserved for liquid nitrogen storage. Frozen vials of cells were thawed at 37° C. water bath. Cells were spun to remove freezing medium. The newly revived frozen cells were adapted in culture for 10 days before used for compound testing. Cells used in the assay were less than 20 subculture passages or 3 months in culture.
(§4) The test compounds were dissolved in dimethylsulfoxide (DMSO) and stored at -20° C. before testing. […] The cells were placed in a culture incubator overnight. Next day, test compounds in DMSO were added to the cells and placed back in the culture incubator for 72 hrs. In the meantime, the cell numbers at time zero of the compound treatment (T0) was measured by ENERCOUNT® (Codex BioSolutions). At the end of the compound treatment, the cell numbers were again measured by EnerCount as T72 values. The untreated controls (Ctrl) were cell numbers recorded from the 0.1% DMSO treatment. The percent growth inhibition by the test compound was calculated by the formula: (1- (T72-T0)/(Ctrl-T0)) x 100.
(§5) The results are summarized in Tables 1 and 2, wherein A represents a value no greater than 500 nM, B represents a value greater than 500 nM but no greater than 1 µM, C represents a value greater than 1 µM but no greater than 5 µM, and D represents a value greater than 5 µM; and wherein A′ represents a ratio of greater than 10, B′ represents a ratio of no greater than 10 but no less than 5, C′ represents a ratio of no greater than 5 but no less than 2, and D′ represents a ratio of no greater than 2.

Assay [3] deals with HCC827 human NSCLC adenocarcinoma cells (mutant ERBB1, deletion of E746-A759 in exon 19). The assay is described as follows: Cell proliferation assay, HCC827. It counts as cell-based. The method, then: as §2, §3, §4, §5
The subject of assay [4] is H1975 human NSCLC adenocarcinoma cells (drug-resistant mutant ERBB1, T790M in-cis with L858R). Put plainly: Cell proliferation assay, H1975. It counts as cell-based. The method, then:
as §2, §3, §4, §5

The target of assay [5] is T1, TEC (Homo sapiens, UniProt P42680).
T1 sequence (P42680 1-631): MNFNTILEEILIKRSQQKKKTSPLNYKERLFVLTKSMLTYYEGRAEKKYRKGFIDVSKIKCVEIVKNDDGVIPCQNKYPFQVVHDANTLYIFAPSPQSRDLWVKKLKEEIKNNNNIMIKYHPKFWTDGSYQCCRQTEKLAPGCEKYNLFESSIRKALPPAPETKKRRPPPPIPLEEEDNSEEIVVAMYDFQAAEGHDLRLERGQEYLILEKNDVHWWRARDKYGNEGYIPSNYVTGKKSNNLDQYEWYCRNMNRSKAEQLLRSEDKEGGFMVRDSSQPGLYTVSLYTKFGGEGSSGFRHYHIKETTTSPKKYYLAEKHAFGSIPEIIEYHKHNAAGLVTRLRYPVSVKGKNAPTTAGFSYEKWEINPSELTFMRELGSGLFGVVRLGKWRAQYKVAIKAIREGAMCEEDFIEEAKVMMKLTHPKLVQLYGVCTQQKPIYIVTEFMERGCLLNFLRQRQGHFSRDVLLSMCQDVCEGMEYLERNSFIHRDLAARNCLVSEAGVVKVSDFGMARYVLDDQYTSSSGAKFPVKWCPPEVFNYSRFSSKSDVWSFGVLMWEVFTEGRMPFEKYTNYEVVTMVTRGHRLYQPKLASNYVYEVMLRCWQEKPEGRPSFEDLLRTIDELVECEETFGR
The assay is described as follows: Inhibition of TEC kinase. The conditions noted are these: 1% DMSO. The class given is binding. As for the experimental part: Binding of an ALEXA FLUOR® conjugate or “tracer” to a kinase is detected by addition of a Eu-labeled anti-tag antibody. Binding of the tracer and antibody to a kinase results in a high degree of FRET, whereas displacement of the tracer with a kinase inhibitor results in a loss of FRET. An inhibitory activity of a compound is thus determined from the extent of the FRET signal loss. Inhibition of ITK and TEC kinases by a test compound is determined in the presence of 1% DMSO.
as §1

Molecules are shown by their SMILES.

Sequence of PIK3C-D (O00329 whole entry): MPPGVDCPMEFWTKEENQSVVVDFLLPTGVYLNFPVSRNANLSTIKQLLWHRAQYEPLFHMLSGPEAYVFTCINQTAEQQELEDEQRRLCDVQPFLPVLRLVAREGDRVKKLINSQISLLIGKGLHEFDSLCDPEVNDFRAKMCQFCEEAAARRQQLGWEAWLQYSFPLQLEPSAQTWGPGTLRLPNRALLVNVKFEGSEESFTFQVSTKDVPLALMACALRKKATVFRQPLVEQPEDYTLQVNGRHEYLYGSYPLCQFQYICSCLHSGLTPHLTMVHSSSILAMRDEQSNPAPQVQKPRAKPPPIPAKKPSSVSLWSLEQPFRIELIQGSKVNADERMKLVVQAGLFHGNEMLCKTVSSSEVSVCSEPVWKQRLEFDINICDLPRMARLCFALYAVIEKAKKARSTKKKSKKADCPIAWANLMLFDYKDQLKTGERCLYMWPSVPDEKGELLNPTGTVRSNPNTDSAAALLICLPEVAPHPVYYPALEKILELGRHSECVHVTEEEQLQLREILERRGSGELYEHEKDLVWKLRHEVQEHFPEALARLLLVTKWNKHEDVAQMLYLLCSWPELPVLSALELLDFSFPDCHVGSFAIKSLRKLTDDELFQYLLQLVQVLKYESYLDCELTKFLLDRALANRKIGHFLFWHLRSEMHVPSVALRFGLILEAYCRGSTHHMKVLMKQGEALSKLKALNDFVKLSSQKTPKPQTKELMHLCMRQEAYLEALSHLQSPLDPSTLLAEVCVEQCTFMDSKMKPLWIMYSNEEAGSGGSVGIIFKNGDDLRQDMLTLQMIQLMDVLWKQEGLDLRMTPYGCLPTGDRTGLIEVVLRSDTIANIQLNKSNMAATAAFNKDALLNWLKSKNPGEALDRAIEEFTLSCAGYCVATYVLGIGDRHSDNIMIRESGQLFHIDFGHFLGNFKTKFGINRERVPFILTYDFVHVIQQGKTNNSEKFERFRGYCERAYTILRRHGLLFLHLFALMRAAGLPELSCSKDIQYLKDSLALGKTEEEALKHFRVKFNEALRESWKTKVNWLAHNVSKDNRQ
Sequence of PIK3C-D (P27986 whole entry partner): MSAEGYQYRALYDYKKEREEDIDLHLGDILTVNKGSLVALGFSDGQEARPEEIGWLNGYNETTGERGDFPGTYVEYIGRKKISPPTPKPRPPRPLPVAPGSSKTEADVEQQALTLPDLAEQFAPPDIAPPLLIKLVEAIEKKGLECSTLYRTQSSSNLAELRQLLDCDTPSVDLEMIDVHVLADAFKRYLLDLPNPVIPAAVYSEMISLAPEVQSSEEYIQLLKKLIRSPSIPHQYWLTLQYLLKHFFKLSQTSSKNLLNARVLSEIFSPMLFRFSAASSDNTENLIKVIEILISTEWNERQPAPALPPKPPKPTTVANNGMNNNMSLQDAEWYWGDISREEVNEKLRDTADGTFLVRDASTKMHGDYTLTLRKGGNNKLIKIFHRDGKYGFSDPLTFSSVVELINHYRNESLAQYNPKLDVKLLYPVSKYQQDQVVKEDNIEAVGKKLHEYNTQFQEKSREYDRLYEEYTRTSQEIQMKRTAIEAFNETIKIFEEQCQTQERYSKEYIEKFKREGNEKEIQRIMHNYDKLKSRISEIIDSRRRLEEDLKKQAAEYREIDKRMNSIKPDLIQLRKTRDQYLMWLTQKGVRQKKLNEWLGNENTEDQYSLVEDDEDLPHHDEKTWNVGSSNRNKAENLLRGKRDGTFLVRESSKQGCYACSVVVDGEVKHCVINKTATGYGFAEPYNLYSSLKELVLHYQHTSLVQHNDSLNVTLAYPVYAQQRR

The IC50 is the concentration that inhibits the measured activity by half. A higher IC50 goes with a need for much substance. For orientation: GI50 means the concentration at which growth is held to half of that of the control. Take `C=CC(=O)N1CCCC[C@@H](n2c(NC(=O)c3ccnc(C)c3)nc3cccc(OC4CCN(C(C)=O)CC4)c32)C1` [Compound A2, (R)-N-(7-((1-acetylpiperidin-4-yl)oxy)-1-(1-acryloylazepan-3-yl)-1H-benzo[d]imidazol-2-yl)-2-methylisonicotinamide]: the IC50 in assay [1] and in assay [5] was not above 10 nM in each case. Moreover, the Inhibition entry in assay [1] and in assay [5] was “A (A represents a value no greater than 10 nM or no less than 90% inhibition)” in each case. Further, the GI50 in assay [2] was 500 to 1000 nM; in assay [3] (Homo sapiens, HCC827 cells, 72 hrs) it was less than 500 nM; in assay [4] (Homo sapiens, NCI-H1975, H1975 cells, 72 hrs) it was less than 500 nM. Moreover, in assay [3] (GI50 ratio A431/HCC827), the “Ratio (Wild-type ERBB1/Mutant ERBB1) A431/HCC827” value is listed as “A′ (A′ represents a ratio of greater than 10)”. Further, the “Ratio (Wild-type ERBB1/Mutant ERBB1) HEKn/HCC827” value in assay [3] (GI50 ratio HEKn/HCC827) is on record as “A′ (A′ represents a ratio of greater than 10)”. Moreover, in assay [4] (GI50 ratio A431/H1975), the “Ratio (Wild-type ERBB1/Mutant ERBB1) A431/H1975” value was “B′ (B′ represents a ratio of no greater than 10 but no less than 5)”. The “Ratio (Wild-type ERBB1/Mutant ERBB1) HEKn/H1975” value in assay [4] (GI50 ratio HEKn/H1975) is listed as “A′ (A′ represents a ratio of greater than 10)”.
